# Reference: patent US12116358B2, “Substituted indoles and methods of use thereof” (EPIZYME, INC., priority 2018, dated 2024)
# Where two headings read alike, the source gives them in different places.
# Assays:
# SETD2(1434-1711) = biological target: T1, SETD2(1434-1711) (Homo sapiens, UniProt Q9BYW2); test: SETD2 (1434-1711) assay; type: biochemical; conditions: read-out: SETD2 (1434-1711)
# T1 construct: SETD2 (1434-1711) Assay; catalogue N/A
# T1 sequence (Q9BYW2 1434-1711): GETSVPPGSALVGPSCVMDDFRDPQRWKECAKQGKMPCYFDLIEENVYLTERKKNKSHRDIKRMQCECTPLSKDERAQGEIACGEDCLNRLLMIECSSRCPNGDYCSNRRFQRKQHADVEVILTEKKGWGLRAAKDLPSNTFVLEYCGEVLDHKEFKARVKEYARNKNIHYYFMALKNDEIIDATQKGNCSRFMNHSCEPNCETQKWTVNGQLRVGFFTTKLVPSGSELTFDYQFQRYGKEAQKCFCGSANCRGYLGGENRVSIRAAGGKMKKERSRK
# H3K36me3 in A549 cells = test: In-Cell Western (ICW) assay of SETD2 inhibitors (A549 assay); type: cell-based, human
# Description: In-Cell Western (ICW) Assay of SETD2 Inhibitors (A549 Assay)
# Representative Compounds of the Disclosure were tested in the A549 assay according the following protocol.
# 1. Reagents and Consumables:
# Prepare plates with compounds. Seed A549 cells to the plates with compounds, 4,000 cells/well, 50 μl/well. Put the plates at room temperature on a non-vibrating surface for 20 minutes before placing in the incubator. Incubate the plate at 37° C. incubator with CO2 for 3 days. Remove plate from incubator and bring to room temperature. Blot media out of the plate and add 50 μL of ice cold 100% methanol. Incubate 30 minutes at room temperature. Remove methanol by aspiration. Wash 3× with PBST. Add 50 μL of Blocking Buffer+0.1% Tween 20. Incubate 1 hour. Remove Blocking Buffer, wash 3× with PBST. Add 20 μL of H3K36me3 (1:1000 dilution). […] Incubate overnight at 4° C. Wash plate 5× with PBS-T. Add 20 μL of DRAQ5 (1:1000) and IRDye 800CW Goat anti-Rabbit IgG (1:500). Incubate for 1 hour in the dark. Wash plate 5× with PBS-T. Wash plate 3× with water. Dry by blotting on paper towel, then centrifuge plate upside down on a thin layer of paper towels for 1 minute at 1000 rpm to remove excess reagent. Leave plate uncovered for ˜10 minutes out of direct light before reading. Read on Licor instrument.
# 4. Licor Instrument Settings:
# Preset: Plate; Resolution: 84 μm; Quality: low; Focus offset: 4.0; 700 channel intensity: 2; and 800 channel intensity: 3.
# [1] = Homo sapiens, A549 cells, read-out: SETD2 A549
# [2] = A549 cells, read-out: SETD2 A549
Structure (SMILES),IC50 (SETD2(1434-1711)) [nM],"IC50 (H3K36me3 in A549 cells; Homo sapiens, A549, read-out: SETD2 A549) [nM]",IC50 (H3K36me3 in A549 cells; [1]) [nM],IC50 (H3K36me3 in A549 cells; [2]) [nM]
"Cc1ccc(F)c2cc(C(=O)Nc3ccnc(N4CCN(C)CC4)c3)[nH]c12 [Cpd. No. 340, 4-fluoro-7-methyl-N-(2-(4-methylpiperazin-1-yl)pyridin-4-yl)-1H-indole-2-carboxamide]",200,1700,,
"Cc1ccc(F)c2cc(C(=O)NCC3(c4ccccc4N4CCN(C)CC4)CC3)[nH]c12 [Cpd. No. 392, 4-fluoro-7-methyl-N-((1-(2-(4-methylpiperazin-1-yl)phenyl)cyclopropyl)methyl)-1H-indole-2-carboxamide]",60,,2000,
"Cc1ccc(F)c2cc(C(=O)NC(c3nccc4ccccc34)C3CC3)[nH]c12 (stereo not drawn) [Cpd. No. 507, N-(cyclopropyl(isoquinolin-1-yl)methyl)-4-fluoro-7-methyl-1H-indole-2-carboxamide]",1100,,15100,
Cc1ccc(F)c2cc(C(=O)Nc3cc(F)cc(N4CCC(N5CCN6C(=O)N(C)CC6C5)C4)c3)[nH]c12 (stereo not drawn) [compound 2],5,,,30
Cc1ccc(F)c2cc(C(=O)Nc3cc(F)cc(N4CCC(N(C)C)C4=O)c3)[nH]c12 (stereo not drawn) [compound 3],4,,,30
Cc1ccc(F)c2cc(C(=O)Nc3cc(F)cc(N4CCC(N5CCN(CC(=O)N(C)C)CC5)C4)c3)[nH]c12 (stereo not drawn) [compound 4],6,,,30
CC(=O)N1CCC2(CC1)CCN(c1cc(F)cc(NC(=O)c3cc4c(F)ccc(C)c4[nH]3)c1)C2 [compound 5],8,,,40
Cc1ccc(F)c2cc(C(=O)Nc3cc(F)cc(N4CCC(N5CCN(CC(N)=O)CC5)C4)c3)[nH]c12 (stereo not drawn) [compound 6],6,,,40
CC(=O)N1CCN(C2CCN(c3cc(F)cc(NC(=O)c4cc5c(F)ccc(C)c5[nH]4)c3)C2)CC1 (stereo not drawn) [compound 9],8,,,40
Cc1ccc(F)c2cc(C(=O)Nc3cc(F)cc(N4CCN(C5CC5)C(=O)C4)c3)[nH]c12 [compound 10],10,,,40
COCC(=O)N1CCN(c2cc(F)cc(NC(=O)c3cc4c(F)ccc(C)c4[nH]3)c2)CC1 [compound 12],10,,,50
CC(=O)N1CCC2C1CCN2c1cc(F)cc(NC(=O)c2cc3c(F)ccc(C)c3[nH]2)c1 (stereo not drawn) [compound 13],10,,,50
CC(=O)N1CCC2CN(c3cc(F)cc(NC(=O)c4cc5c(F)ccc(C)c5[nH]4)c3)CC21 (stereo not drawn) [compound 14],7,,,50
Cc1ccc(F)c2cc(C(=O)Nc3cc(F)cc(N4CCC(N5CCOC(CO)C5)C4)c3)[nH]c12 (stereo not drawn) [compound 16],10,,,50
Cc1ccc(F)c2cc(C(=O)Nc3cc(F)cc(N4CCC(N5CCN(C)C(=O)C5)C4)c3)[nH]c12 (stereo not drawn) [compound 17],9,,,50
Cc1ccc(F)c2cc(C(=O)Nc3cc(F)cc(N4CCC(N5CCCC5=O)C4)c3)[nH]c12 (stereo not drawn) [compound 18],8,,,60
CC(=O)N1CCC2(CC1)CN(c1cc(F)cc(NC(=O)c3cc4c(F)ccc(C)c4[nH]3)c1)C2 [compound 19],10,,,60
Cc1ccc(F)c2cc(C(=O)Nc3cc(F)cc(N4CCN(C)C(=O)C4)c3)[nH]c12 [compound 20],9,,60,
Cc1ccc(F)c2cc(C(=O)Nc3cc(F)cc(N4CCOC(CCO)C4)c3)[nH]c12 (stereo not drawn) [compound 24],20,,,60
Cc1ccc(F)c2cc(C(=O)Nc3cc(F)cc(N4CCN(C(=O)N(C)C)CC4)c3)[nH]c12 [compound 25],10,,,70
Cc1ccc(F)c2cc(C(=O)Nc3cc(F)cc(C4CCN5C(=O)CCC5C4)c3)[nH]c12 (stereo not drawn) [compound 26],10,,,70
Cc1ccc(F)c2cc(C(=O)Nc3cccc(N4CCN5C(=O)CCC5C4)c3)[nH]c12 (stereo not drawn) [compound 27],20,,,70
Cc1ccc(F)c2cc(C(=O)Nc3cc(F)cc(N4CCC5(CCNCC5(F)F)C4)c3)[nH]c12 (stereo not drawn) [compound 28],10,,70,
Cc1ccc(F)c2cc(C(=O)Nc3cc(F)cc(N4CCC(N5CCn6ccnc6C5)C4)c3)[nH]c12 (stereo not drawn) [compound 29],20,,,70
CC(=O)N1CCC2(CCN(c3cc(F)cc(NC(=O)c4cc5c(F)ccc(C)c5[nH]4)c3)CC2)C1 [compound 30],8,,,70
Cc1ccc(F)c2cc(C(=O)Nc3cc(F)cc([C@H]4CC[C@@H](N5CCOCC5)CC4)c3)[nH]c12 [compound 35],6,,80,

Structure (SMILES),IC50 (SETD2(1434-1711)) [nM],"IC50 (H3K36me3 in A549 cells; Homo sapiens, A549, read-out: SETD2 A549) [nM]",IC50 (H3K36me3 in A549 cells; [1]) [nM],IC50 (H3K36me3 in A549 cells; [2]) [nM]
CCC(=O)N1CCN(c2cccc(NC(=O)c3cc4c(F)ccc(C)c4[nH]3)c2)CC1 [compound 36],30,,,90
Cc1ccc(F)c2cc(C(=O)Nc3cccc(C4CCN5C(=O)CCC5C4)c3)[nH]c12 (stereo not drawn) [compound 37],20,,,90
Cc1ccc(F)c2cc(C(=O)Nc3cc(F)cc(N4CCC(N5CCN(C(=O)CN(C)C)CC5)C4)c3)[nH]c12 (stereo not drawn) [compound 39],4,,,90
Cc1ccc(F)c2cc(C(=O)Nc3cc(F)cc(N4CC5(CCN(CC(F)F)CC5)C4)c3)[nH]c12 [compound 40],40,,,100
Cc1ccc(F)c2cc(C(=O)Nc3cccc(N4CC5(CCN(CC(F)F)CC5)C4)c3)[nH]c12 [compound 41],30,,,100
CC(=O)N(C)C1CCCN(c2cccc(NC(=O)c3cc4c(F)ccc(C)c4[nH]3)c2)C1 (stereo not drawn) [compound 42],20,,,100
Cc1ccc(F)c2cc(C(=O)Nc3cc(F)cc(N4CCN(C(=O)C(C)N(C)C)CC4)c3)[nH]c12 (stereo not drawn) [compound 43],7,,,100
COCC(=O)N1CCN(c2cccc(NC(=O)c3cc4c(F)ccc(C)c4[nH]3)c2)CC1 [compound 44],40,,100,
CC(=O)N1CCC(c2cccc(NC(=O)c3cc4c(F)ccc(C)c4[nH]3)c2)CC1 [compound 45],30,,100,
Cc1ccc(F)c2cc(C(=O)Nc3cc(F)cc(N4CCC(N(C)CCF)C4)c3)[nH]c12 (stereo not drawn) [compound 47],10,,,100
Cc1ccc(F)c2cc(C(=O)Nc3cc(F)cc(N4CCOC(CO)C4)c3)[nH]c12 (stereo not drawn) [compound 48],20,,,100
Cc1ccc(F)c2cc(C(=O)Nc3cccc(N4CCN(C(=O)c5cccnc5)CC4)c3)[nH]c12 [compound 49],30,,,100
Cc1ccc(F)c2cc(C(=O)Nc3cccc(N4CCOC(CCO)C4)c3)[nH]c12 (stereo not drawn) [compound 50],60,,,100
Cc1ccc(F)c2cc(C(=O)Nc3cccc([C@@H]4CCN5C(=O)CC[C@@H]5C4)c3)[nH]c12 [compound 51],20,,,100
CC(=O)N1CCN(c2cccc(NC(=O)c3cc4c(F)ccc(C)c4[nH]3)c2F)CC1 [compound 52],70,,,100
Cc1ccc(F)c2cc(C(=O)Nc3cc(F)cc(N4CCC(N(C)C)C4)c3)[nH]c12 (stereo not drawn) [compound 53],5,,,100
Cc1ccc(F)c2cc(C(=O)Nc3cccc(N4CCN5C(=O)N(C)CC5C4)c3)[nH]c12 (stereo not drawn) [compound 54],30,,100,
Cc1ccc(F)c2cc(C(=O)Nc3cccc(N4CCN(C(=O)N(C)C)CC4)c3)[nH]c12 [compound 55],50,,100,
CC(=O)N1CCC(c2cc(F)cc(NC(=O)c3cc4c(F)ccc(C)c4[nH]3)c2)C1 (stereo not drawn) [compound 56],30,,,100
Cc1ccc(F)c2cc(C(=O)Nc3cccc(N4CCC5(CC4)COC5)c3)[nH]c12 [compound 57],30,,,100
Cc1ccc(F)c2cc(C(=O)Nc3cccc(N4CCN(C)C(=O)C4)c3)[nH]c12 [compound 58],40,,,100
Cc1ccc(F)c2cc(C(=O)Nc3cccc(N4CCC(N(C)C)C4)c3)[nH]c12 (stereo not drawn) [compound 59],10,,,100
Cc1ccc(F)c2cc(C(=O)Nc3cccc(N4C[C@H](O)[C@@H](N(C)C)C4)c3)[nH]c12 [compound 61],10,,,100
Cc1ccc(F)c2cc(C(=O)Nc3cc(F)cc(N4CCN(C(=O)CN(C)C)CC4)c3)[nH]c12 [compound 62],9,,,100
Cc1ccc(F)c2cc(C(=O)Nc3cccc(N4CC(F)C(N(C)C)C4)c3)[nH]c12 (stereo not drawn) [compound 63],20,,,100
